Laboratory results reported in PMC3197159, “The Atypical Stimulant and Nootropic Modafinil Interacts with the Dopamine Transporter in a Different Manner than Classical Cocaine-Like Inhibitors” (PLoS ONE, 2011).

What was measured:
NET = tested on: NET; parameters: method as in Madras et al. (2006) 53; conditions: ref Madras et al. (2006) 53; read-out: IC50, inhibition of noradrenaline uptake by the NET; cited from earlier work
WT human DAT = WT human DAT (Homo sapiens, UniProt Q01959); test: [3H]CFT binding inhibition, intact HEK293 cells expressing WT hDAT; conditions: inhibition by cold β-CFT
Chain of WT human DAT (Q01959 whole entry): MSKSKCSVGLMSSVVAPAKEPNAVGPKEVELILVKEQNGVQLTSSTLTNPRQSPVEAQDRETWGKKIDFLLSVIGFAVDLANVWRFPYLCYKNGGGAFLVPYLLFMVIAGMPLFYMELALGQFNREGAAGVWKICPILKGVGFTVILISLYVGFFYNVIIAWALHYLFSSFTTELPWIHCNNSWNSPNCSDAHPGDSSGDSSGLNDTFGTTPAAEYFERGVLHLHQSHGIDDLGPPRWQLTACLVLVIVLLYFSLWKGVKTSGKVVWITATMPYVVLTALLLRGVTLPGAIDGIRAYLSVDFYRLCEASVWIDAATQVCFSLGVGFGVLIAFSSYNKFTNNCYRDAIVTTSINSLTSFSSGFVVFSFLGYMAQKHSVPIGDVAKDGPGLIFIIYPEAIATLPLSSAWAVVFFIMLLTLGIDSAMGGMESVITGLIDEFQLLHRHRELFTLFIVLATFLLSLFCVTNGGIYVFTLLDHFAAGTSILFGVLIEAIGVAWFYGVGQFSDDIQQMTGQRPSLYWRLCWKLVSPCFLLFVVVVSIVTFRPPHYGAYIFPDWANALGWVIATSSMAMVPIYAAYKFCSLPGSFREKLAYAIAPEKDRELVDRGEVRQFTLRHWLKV

Row | SMILES | IC50 (NET) [µM] | Bmax of [3H]CFT binding, sodium-free + Zn2+ (WT human DAT; sodium-free conditions with 10 µM Zn2+) [fmole/well] | Bmax of [3H]CFT binding, sodium-free (WT human DAT; sodium-free conditions, no Zn2+) [fmole/well]
2 | COC(=O)C1C(c2ccc(F)cc2)CC2CCC1N2C (stereo not drawn) [β-CFT] | – | 502±78 | 125±15.8
